The values below come from article PMC6382696, “Drug Repurposing: The Anthelmintics Niclosamide and Nitazoxanide Are Potent TMEM16A Antagonists That Fully Bronchodilate Airways” (Frontiers in Pharmacology, 2019).

The structures appear in SMILES notation. Several values for one entry are separate records, joined by “and”; a condition that tells them apart may be missing. Equal values may be shown once. Read-outs that look alike come from different tables or passages of the source. Some results are limits rather than exact numbers.

One may read the IC50 as the point on the concentration scale where inhibition reaches its midpoint.

Assay [1] concerns human bronchial smooth muscle cells. The assay can be described thus: Histamine-induced depolarization of human bronchial smooth muscle cells (FLIPR membrane potential). Type of assay: cell-based. The note with it: read-out: Histamine Depolarization of ASM Cells (IC50). As for the experimental part: Cultured human bronchial smooth muscle cells (BSMC) from Lonza were resuspended in Smooth Muscle Growth Medium-2 (SmGM-2; Lonza) at a concentration of 4 × 10^5 cells per ml. One hundred microliters of cells per well were plated in a black wall clear bottom polystyrene 96-well tissue culture plate and incubated in a 37°C humidified incubator with 5% CO2 overnight. Cells were serum starved by removing the SmGM-2 and replaced with one hundred microliters per well of Smooth Muscle Cell Basal Medium 2 (SmBM-2), phenol red-free (PromoCell), and incubated in a 37°C humidified incubator with 5% CO2 for 24 h. SmBM-2 was replaced with 100 microliters of fresh SmBM-2. Compounds were dissolved in 100% DMSO and serially diluted ½ log in a polypropylene 96-well microtiter plate (drug plate). Columns 6 and 12 were reserved as controls (HI control and LO control respectively) and contained only DMSO. Serially diluted compounds were diluted in SmBM-2 to 10X the final concentration. Twenty-five microliters of 10X compound titrations, and one hundred microliters of Blue dye-loading buffer (FLIPR Membrane Potential Assay Kit; Molecular Devices) were added to the cells. Cells were pre-incubated at room temperature with compound for 0.5 h. Five micromolar (10X) histamine was prepared in SmBM-2. Using the FLIPR-Tetra (Molecular Devices), three measurements of the baseline fluorescence were taken over the span of 1 min. Twenty-five microliters per well of 10X histamine were added to the first 11 columns of the plate containing the compound treated cells. Twenty-five microliters of SmBM-2 were added to column 12 for the LO control. Fifty-five fluorescence measurements were taken over the span of 14 min. The area under the curve (AUC) from the fluorescence kinetic traces (normalized to baseline fluorescence) were calculated. The amount of fluorescence in the presence of compound compared with that in the presence of DMSO vehicle alone (HI control) was calculated using the formula: % control (POC) = (compd – average LO)/(average HI – average LO)^∗100.

A further assay deals with T1, hTMEM16A (abc) (Homo sapiens, UniProt Q5XXA6, DEL476-501).
T1 sequence (Q5XXA6 with tags, fused parts or gaps isoform Q5XXA6-5 DEL539-564): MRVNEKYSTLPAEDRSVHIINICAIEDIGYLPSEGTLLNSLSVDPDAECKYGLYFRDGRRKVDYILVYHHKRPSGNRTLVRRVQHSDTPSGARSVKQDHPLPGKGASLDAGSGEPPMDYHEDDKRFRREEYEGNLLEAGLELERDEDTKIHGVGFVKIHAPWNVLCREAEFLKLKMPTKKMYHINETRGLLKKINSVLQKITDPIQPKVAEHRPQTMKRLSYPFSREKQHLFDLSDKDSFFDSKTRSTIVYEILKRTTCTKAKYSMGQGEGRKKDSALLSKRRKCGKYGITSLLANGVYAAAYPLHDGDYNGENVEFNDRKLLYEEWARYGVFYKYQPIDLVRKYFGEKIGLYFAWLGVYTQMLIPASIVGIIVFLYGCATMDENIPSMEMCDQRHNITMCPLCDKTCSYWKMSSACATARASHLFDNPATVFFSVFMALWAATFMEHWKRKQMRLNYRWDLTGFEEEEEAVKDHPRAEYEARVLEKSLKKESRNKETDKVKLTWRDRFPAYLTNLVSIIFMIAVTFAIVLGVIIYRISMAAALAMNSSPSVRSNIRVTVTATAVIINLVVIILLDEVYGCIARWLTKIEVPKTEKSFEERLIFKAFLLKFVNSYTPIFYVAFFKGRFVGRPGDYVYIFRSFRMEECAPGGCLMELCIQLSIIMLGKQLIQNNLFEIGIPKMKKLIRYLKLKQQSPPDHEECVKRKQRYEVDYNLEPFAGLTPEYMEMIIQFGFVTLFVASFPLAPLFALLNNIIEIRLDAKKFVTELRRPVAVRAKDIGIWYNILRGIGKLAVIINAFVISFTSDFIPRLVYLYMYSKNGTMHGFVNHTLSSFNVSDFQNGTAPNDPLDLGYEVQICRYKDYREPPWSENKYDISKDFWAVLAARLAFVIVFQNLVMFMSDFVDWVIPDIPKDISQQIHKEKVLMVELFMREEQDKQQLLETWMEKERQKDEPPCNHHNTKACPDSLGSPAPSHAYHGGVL
The assay can be described thus: medchem TMEM16A halide-sensitive YFP assay, 22-point dose-response. Type of assay: cell-based. The arrangement: expressed in transfected cells. The note with it: for scope of block of ionomycin-induced iodide eYFP quenching: up to 55.6 μM. The essentials: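 HEK293T stably expressing eYFP (H149Q, I153L) and hTMEM16A(abc), preincubated 30 min at room temperature with compound in HBSS/10 mM HEPES pH 7.4.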

Where [2] appears, read: average, 22-point dose-response, iodide as permeant anion, read-out: TMEM16A eYFP Assay (IC50).
Setting [3] is: supplement, iodide as permeant anion, maximum concentration 55.6, read-out: TMEM16A eYFP Assay IC50.

Turning to `COc1cc(Nc2ccc([N+](=O)[O-])cc2C(=O)O)cc2ccccc12` [MONNA], the half-inhibitory concentration (IC50) amounted to 0.201 ± 0.162 µM in assay [1], 6.29 ± 1.47 µM at hTMEM16A (abc) (setting [2]) and 6.29 ± 1.47 µM at hTMEM16A (abc) (setting [3]). Also, the “scope of block of ionomycin-induced iodide eYFP quenching” value (“scope” for short) at hTMEM16A (abc) is “fully inhibited”.

Turning to `O=C(Nc1ncc([N+](=O)[O-])s1)c1cccs1` [NTTP], the half-maximal inhibitory concentration (IC50) came to 25.2 ± 5.45 µM in assay [1] and 2.48 ± 1.24 µM on hTMEM16A (abc) (setting [2]).

On to `CCc1c(C)nc(SCC(=O)Nc2nc(-c3ccc(OC)cc3)cs2)[nH]c1=O` [T16Ainh-A01], for which the figures for the half-inhibitory concentration (IC50) (in assay [1]; on hTMEM16A (abc) (setting [2]); at hTMEM16A (abc) (setting [3])) were > 30 µM, > 50 µM and > 55.6 µM, respectively. Besides, on hTMEM16A (abc), the “scope” value was “inactive”.

For `O=C(Nc1ccc([N+](=O)[O-])cc1Cl)c1cc(Cl)ccc1O` [Niclosamide], the 50% inhibitory concentration (IC50) was 0.389 ± 0.478 µM in assay [1]; 0.13 µM and 0.132 µM at hTMEM16A (abc) (setting [2]); 0.132 ± 0.0671 µM at hTMEM16A (abc) (setting [3]). Also, the “maximal percent inhibition in the TMEM16A/eYFP assay” value at hTMEM16A (abc) (iodide as permeant anion) amounted to 62.4 ± 12.0%. Moreover, the “scope” value at hTMEM16A (abc) was “only partial inhibition”. The “times more potent than other antagonists in the halide-sensitive YFP assay” value on hTMEM16A (abc) (versus eight benchmark antagonists) is 10–200 times.

For the compound `N#Cc1c(C(F)(F)F)cc(O)n2c1nc1ccccc12` [1PBC], the IC50 in assay [1] worked out at 0.964 ± 0.756 µM; on hTMEM16A (abc) (setting [2]), 1.52 ± 1.36 µM; at hTMEM16A (abc) (setting [3]) it was 1.52 ± 1.36 µM. The “scope” value at hTMEM16A (abc) is recorded as “only partial inhibition”.

Consider `CCc1oc2ccccc2c1C(=O)c1cc(Br)c(O)c(Br)c1` [Benzbromarone], for which the IC50 was determined as 0.208 ± 0.248 µM in assay [1]; 1.51 ± 0.504 µM at hTMEM16A (abc) (TMEM16A eYFP Assay IC50, supplement, iodide as permeant anion, maximum concentration 55.6); 1.51 ± 0.504 µM on hTMEM16A (abc) (setting [2]). Also, at hTMEM16A (abc), the “scope” value was “fully inhibited”.

In the case of `CC(C)(C)C1CCc2c(sc(NC(=O)c3ccco3)c2C(=O)O)C1` (stereo not shown) [CaCCinh-A01], the IC50 in assay [1] was 4.76 ± 1.23 µM.

Take `O=C(Nc1ccc([N+](=O)[O-])cc1)c1cc(Cl)c2ccccc2c1O` [Cpd 3]: the IC50 amounted to 0.017 µM in assay [1] and 0.184 ± 0.089 µM on hTMEM16A (abc) (setting [2]). Also, the “scope” value on hTMEM16A (abc) is listed as “only partially inhibited”.

As to `Oc1ccc(Cl)cc1Cc1cc(Cl)ccc1O` [Dichlorophen], the IC50 came out at 0.938 ± 0.36 µM in assay [1], 4.37 ± 1.21 µM at hTMEM16A (abc) (setting [2]) and 4.36 ± 1.21 µM on hTMEM16A (abc) (setting [3]). Further, the “scope” value on hTMEM16A (abc) is on record as “fully inhibited”.

Consider `O=C(Nc1ncc([N+](=O)[O-])s1)c1ccccc1O` [Tizoxanide], for which, on hTMEM16A (abc) (setting [2]), the 50% inhibitory concentration (IC50) was determined as 0.398 µM. Further, the “scope” value on hTMEM16A (abc) was “partially inhibiting”.

Take `O=C(Nc1ccc(Cl)cc1)c1cc(Cl)ccc1O` [Cpd 5]: the IC50 in assay [1] stood at 0.071 ± 0.02 µM; on hTMEM16A (abc) (setting [2]), 0.37 ± 0.131 µM; on hTMEM16A (abc) (setting [3]), 0.37 ± 0.131 µM. Moreover, at hTMEM16A (abc), the “scope” value was “only partially inhibited”.

For `O=C(O)c1cccnc1Nc1cccc(C(F)(F)F)c1` [Niflumic Acid], the half-inhibitory concentration (IC50) in assay [1] was found to be 6.29 ± 1.59 µM; on hTMEM16A (abc) (setting [2]), 26.6 ± 11.8 µM.

For `COc1cc([N+](=O)[O-])ccc1NC(=O)c1cc(Cl)c2ccccc2c1O` [Cpd 4], the IC50 in assay [1] amounted to 0.178 ± 0.007 µM; on hTMEM16A (abc) (setting [2]) it was 0.901 ± 0.524 µM; on hTMEM16A (abc) (setting [3]), 0.954 ± 0.648 µM. Also, the “scope” value on hTMEM16A (abc) is “only partial inhibition”.

Take `O=C(Nc1ccc([N+](=O)[O-])cc1)c1cc(Cl)ccc1O` [Cpd 2]: in assay [1], the IC50 worked out at 0.044 µM. At hTMEM16A (abc), the “scope” value is reported as “only partially inhibited”.
